Measured values reported in patent publication US20260337208A1, “HETEROCYCLIC DERIVATIVES AS JANUS KINASE INHIBITORS” (CHIESI FARMACEUTICI S.P.A., priority 2022, published 2026).

How the values were obtained:
JAK1 = JAK1 (Homo sapiens, UniProt P23458); assay: Biochemical potency on JAK1, TR-FRET (LANCE Ultra kinase assay); settings: ATP corresponding to Km; cell-free; read-out: JAK1 inhibitory activity (pIC50) (converted)
Method: (§1) The objective of this study was to assess the capability of compounds to inhibit all 4 JAK isoforms activity in a cell-free environment. Assay for JAK 1, JAK 2, JAK 3 and TYK2 were performed by Time-resolved fluorescence resonance energy transfer (TR-FRET) technology. It consists in the interaction of two labelled binding partners detected by the energy transfer from an excited donor to an acceptor dye and measurement of light emission by the acceptor dye. LANCE Ultra kinase assay was used. In presence of JAK 1, JAK 2, JAK 3 and TYK2 kinases and ATP (corresponding to Km), the ULight peptide substrate (LANCE Ulight-JAK-1 (Tyr1023) Peptide, Perkin Elmer, TRF0121) is phosphorylated. It is then captured by Eu-anti-phospho-substrate antibody (LANCE Eu-W1024 Anti-phosphotyrosine (PT66), Perkin Elmer, AD0069), which bring the Eu-chelate donor and ULight acceptor dyes into close proximity. Upon excitation at 320 nm, the Eu-chelate transfers its energy to the ULight dye, resulting in a fluorescent light emission at 665 nm.
(§2) Serial dilutions of compounds in pure DMSO are prepared from 10 mM DMSO stock solutions. Compounds were tested in 384-well plate for 11 consecutive 5-fold dilutions starting from 20 μM highest concentration (20 μM-[…]). 200 nL of compound were transferred from mother plate to test plate by using Mosquito (TTP labtech). Assay was performed in 384-well Perkin Elmer test plate in 20 μL assay volume (kinase reaction) and 40 μL total volume (stopping reagent and antibody detection reagents). In 10 μL of substrate solution (peptide+ATP) 30/50/20/10 nM of peptide and 20/0.7/0.2/12 μM of ATP were added for JAK 1, JAK 2, JAK 3 and TYK2 respectively. 10 μL of enzyme solution was added to kinase reaction at these concentrations: 0.15/0.083/0.025/0.144 ng/μL of JAK 1, JAK 2, JAK 3 and TYK2 respectively. After shaking and 1.5 h of incubation at r.t., 20 μL of Stop (10 μL EDTA) and Detection mixture (10 μL Europium-anti-phospho antibody, final: 0.5 nM) were added. Reading was performed after 1 h of incubation on a En Vision 2104 reader (Perkin Elmer).
(§3) Calculation of IC50 data, curves and QC analysis was performed by using Excel tool and GraphPadPrism software, v9. Briefly, individual concentration-effect curves are generated by plotting the logarithm of the tested concentration of tested compounds (X) vs. corresponding percent inhibition values (Y) using least squares (ordinary) fit. Best fit IC50 values are calculated using Log (inhibitor) vs. normalized response—Variable slope equation, where Y=100/(1+10^((LogIC50−X)*HillSlope)). QC criteria parameters (Z′, S:B, R2, HillSlope) were checked for every IC50 curve. Calculation of IC50 data, curves and QC analysis were made using Excel tools and GraphPadPrism software. QC criteria parameters: Z′≥0.5, Hill Slope range 0.5 to 5, S:B>2.

JAK2 = JAK2 (Homo sapiens, UniProt O60674); assay: Biochemical potency on JAK2, TR-FRET (LANCE Ultra kinase assay); settings: ATP corresponding to Km; cell-free; read-out: JAK2 inhibitory activity (pIC50) (converted)
Method: as §1, §2, §3

JAK3 = target: T1, JAK3 (Homo sapiens, UniProt P52333); assay: Biochemical potency on JAK3, TR-FRET (LANCE Ultra kinase assay); settings: ATP corresponding to Km; cell-free; read-out: JAK3 inhibitory activity (pIC50) (converted)
T1 sequence (P52333 1-1124): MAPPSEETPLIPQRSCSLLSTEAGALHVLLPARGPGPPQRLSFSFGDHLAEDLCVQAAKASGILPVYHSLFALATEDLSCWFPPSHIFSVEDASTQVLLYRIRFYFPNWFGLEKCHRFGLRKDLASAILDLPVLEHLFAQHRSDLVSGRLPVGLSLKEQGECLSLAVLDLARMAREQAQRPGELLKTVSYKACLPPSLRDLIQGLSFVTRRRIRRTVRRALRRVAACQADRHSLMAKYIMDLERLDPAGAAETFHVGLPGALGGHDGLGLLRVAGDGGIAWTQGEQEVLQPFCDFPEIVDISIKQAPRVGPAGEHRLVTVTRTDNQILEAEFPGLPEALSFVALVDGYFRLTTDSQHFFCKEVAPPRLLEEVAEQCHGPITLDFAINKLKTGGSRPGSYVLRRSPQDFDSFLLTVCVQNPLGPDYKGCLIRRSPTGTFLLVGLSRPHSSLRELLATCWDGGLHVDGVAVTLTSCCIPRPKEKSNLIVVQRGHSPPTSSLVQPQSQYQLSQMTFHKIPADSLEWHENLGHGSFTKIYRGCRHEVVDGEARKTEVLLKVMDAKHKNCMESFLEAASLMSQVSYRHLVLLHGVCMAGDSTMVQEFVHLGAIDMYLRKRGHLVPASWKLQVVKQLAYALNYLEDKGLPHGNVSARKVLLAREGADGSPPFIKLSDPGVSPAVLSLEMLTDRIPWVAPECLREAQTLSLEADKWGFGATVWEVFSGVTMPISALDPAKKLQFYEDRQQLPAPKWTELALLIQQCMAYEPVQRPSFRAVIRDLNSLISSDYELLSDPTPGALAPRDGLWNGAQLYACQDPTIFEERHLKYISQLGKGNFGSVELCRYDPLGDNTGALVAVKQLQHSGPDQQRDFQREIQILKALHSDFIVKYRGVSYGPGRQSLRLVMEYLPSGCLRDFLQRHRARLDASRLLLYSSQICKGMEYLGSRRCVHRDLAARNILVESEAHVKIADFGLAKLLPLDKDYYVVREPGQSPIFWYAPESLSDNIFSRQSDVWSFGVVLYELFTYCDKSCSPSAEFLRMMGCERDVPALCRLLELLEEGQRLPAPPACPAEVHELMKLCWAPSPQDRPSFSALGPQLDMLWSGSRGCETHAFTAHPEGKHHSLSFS
Method: as §1, §2, §3

TYK2 = TYK2 (Homo sapiens, UniProt P29597); assay: Biochemical potency on Tyk2, TR-FRET (LANCE Ultra kinase assay); settings: ATP corresponding to Km; cell-free; read-out: TYK2 inhibitory activity (pIC50) (converted)
Method: as §1, §2, §3

[1] = system: pSTAT6 in BEAS-2B human cell line; assay: Inhibition of IL-13 induced pSTAT6 in BEAS; assay type: cell-based; settings: for IC50: Homo sapiens, BEAS-2B, 0.5 h, IL-13 trigger, 30 min, parent compound; for Fold difference parent vs predicted acid metabolite: ratio=IC50 predicted acid metabolite/IC50 ester
Method: BEAS-2B human cell line was seeded (100.000 cells/well) and incubated for 48 h at 37° C., 5% CO2, 95% humidity. Compounds were added and incubated 30 min followed by IL-13 as trigger. After 30 min incubation, cells were lysed and pSTAT6 determined by Fastscan phospho-stat6 (Tyr641) sandwich ELISA kit (cell signaling). Inhibitors were tested at 11 consecutive 5-fold dilutions starting from 10 μM (10 μM-[…]) in duplicate. Calculation of IC50 data, curves and QC analysis were made using Excel tools and GraphPadPrism software. QC criteria parameters: Z′≥0.35, Hill Slope range 0.5 to 5, S:B>2.

JAK1, sequence (P23458 whole entry, canonical isoform): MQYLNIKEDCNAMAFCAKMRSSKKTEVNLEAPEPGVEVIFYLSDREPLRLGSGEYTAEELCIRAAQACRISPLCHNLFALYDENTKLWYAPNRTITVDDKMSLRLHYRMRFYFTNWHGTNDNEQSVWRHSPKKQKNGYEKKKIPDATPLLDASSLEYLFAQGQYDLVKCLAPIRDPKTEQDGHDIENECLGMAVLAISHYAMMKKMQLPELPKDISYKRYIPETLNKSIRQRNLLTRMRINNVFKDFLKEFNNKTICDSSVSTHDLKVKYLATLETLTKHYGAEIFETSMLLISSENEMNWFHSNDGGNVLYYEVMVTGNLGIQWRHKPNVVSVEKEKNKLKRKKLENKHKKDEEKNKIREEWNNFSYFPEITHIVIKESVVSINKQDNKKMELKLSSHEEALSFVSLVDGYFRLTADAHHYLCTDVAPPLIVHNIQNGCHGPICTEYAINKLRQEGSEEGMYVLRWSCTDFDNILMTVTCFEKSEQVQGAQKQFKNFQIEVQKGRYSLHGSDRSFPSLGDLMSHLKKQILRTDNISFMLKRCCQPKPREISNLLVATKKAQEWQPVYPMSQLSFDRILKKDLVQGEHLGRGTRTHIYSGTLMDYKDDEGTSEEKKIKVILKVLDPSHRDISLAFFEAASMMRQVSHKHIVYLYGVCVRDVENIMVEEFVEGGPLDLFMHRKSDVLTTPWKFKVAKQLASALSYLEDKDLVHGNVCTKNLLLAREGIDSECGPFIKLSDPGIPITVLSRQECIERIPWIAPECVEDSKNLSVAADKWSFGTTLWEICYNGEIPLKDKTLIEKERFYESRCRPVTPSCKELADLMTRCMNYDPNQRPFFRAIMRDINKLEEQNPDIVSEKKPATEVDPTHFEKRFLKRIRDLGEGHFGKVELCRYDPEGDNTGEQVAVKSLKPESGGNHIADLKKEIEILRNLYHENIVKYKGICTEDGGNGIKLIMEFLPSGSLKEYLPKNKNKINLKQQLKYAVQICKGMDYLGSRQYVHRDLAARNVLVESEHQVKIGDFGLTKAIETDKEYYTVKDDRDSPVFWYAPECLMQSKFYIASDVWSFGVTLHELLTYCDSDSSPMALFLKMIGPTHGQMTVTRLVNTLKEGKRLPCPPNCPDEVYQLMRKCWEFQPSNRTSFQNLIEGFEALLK
JAK2, sequence (O60674 whole entry): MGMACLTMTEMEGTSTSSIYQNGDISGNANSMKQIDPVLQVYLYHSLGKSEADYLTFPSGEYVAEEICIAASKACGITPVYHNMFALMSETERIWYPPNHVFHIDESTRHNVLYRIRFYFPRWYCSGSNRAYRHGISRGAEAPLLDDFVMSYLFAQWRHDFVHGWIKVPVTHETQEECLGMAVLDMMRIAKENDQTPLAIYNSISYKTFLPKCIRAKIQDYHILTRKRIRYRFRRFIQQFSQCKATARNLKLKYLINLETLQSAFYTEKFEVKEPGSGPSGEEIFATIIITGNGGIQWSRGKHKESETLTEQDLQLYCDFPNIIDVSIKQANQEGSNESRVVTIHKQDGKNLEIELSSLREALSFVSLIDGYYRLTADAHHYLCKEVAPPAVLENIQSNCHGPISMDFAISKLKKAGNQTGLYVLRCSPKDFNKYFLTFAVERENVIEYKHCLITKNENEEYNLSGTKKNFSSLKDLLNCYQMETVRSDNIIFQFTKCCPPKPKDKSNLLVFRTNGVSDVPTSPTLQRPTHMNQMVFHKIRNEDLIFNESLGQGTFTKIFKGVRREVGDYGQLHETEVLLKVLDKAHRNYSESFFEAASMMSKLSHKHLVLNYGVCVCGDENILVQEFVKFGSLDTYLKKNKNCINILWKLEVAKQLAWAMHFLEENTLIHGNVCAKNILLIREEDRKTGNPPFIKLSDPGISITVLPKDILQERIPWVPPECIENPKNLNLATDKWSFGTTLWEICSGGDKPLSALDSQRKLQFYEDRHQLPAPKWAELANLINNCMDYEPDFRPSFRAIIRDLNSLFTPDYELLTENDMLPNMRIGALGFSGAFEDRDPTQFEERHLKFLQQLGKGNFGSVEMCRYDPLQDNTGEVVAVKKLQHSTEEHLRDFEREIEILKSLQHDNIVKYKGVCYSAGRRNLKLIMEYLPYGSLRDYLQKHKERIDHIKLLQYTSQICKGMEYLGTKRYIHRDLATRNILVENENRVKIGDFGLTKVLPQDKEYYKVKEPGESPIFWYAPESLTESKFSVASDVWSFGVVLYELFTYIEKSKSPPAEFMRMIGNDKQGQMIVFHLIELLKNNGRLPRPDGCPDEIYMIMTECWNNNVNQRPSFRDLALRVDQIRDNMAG
TYK2, sequence (P29597 whole entry): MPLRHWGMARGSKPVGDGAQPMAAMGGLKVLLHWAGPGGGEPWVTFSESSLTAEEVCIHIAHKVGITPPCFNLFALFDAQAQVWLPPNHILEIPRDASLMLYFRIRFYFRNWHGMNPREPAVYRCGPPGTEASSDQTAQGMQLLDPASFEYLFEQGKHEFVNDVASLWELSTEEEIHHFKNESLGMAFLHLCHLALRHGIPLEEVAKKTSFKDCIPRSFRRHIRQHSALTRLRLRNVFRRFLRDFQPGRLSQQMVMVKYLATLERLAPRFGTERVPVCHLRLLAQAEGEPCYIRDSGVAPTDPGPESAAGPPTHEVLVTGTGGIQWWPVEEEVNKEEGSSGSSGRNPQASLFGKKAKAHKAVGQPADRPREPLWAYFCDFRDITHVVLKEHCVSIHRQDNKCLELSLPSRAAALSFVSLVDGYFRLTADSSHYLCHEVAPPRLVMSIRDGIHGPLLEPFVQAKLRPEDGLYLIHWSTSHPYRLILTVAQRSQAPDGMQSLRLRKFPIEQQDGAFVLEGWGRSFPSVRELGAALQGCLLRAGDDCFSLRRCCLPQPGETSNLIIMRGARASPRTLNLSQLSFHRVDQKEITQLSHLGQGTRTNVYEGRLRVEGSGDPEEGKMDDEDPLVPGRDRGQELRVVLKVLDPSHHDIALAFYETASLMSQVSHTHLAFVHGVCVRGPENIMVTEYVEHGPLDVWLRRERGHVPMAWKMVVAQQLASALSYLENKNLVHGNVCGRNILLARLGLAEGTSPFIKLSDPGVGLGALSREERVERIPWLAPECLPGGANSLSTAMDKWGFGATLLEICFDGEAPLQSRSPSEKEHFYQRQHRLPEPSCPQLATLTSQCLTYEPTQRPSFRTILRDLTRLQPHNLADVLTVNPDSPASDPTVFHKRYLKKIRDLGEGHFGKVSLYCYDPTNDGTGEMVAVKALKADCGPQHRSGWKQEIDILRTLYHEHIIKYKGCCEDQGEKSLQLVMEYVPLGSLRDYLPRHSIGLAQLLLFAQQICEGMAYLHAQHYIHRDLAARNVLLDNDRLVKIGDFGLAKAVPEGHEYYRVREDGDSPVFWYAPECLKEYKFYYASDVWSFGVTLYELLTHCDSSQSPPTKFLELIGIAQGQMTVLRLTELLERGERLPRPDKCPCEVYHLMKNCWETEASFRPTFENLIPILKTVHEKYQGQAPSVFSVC

Row | Compound | IC50 (JAK1) | IC50 (JAK2) | IC50 (JAK3) | IC50 (TYK2) | IC50 [1] | Fold difference parent vs predicted acid metabolite [1]
1 | CCOC(=O)COC(=O)Nc1nn(-c2cc3c(cc2OC)NCCO3)c2cc(-c3cnn4cccnc34)ncc12 [Example 39, ethyl 2-(((1-(6-methoxy-3,4-dihydro-2H-benzo[b][1,4]oxazin-7-yl)-6-(pyrazolo[1,5-a]pyrimidin-3-yl)-1H-pyrazolo[4,3-c]pyridin-3-yl)carbamoyl)oxy)acetate] | ≤ 5.01 nM | ≤ 5.01 nM | ≤ 5.01 nM | 5.01 to 50.1 nM | 5.01 to 50.1 nM | kkkk (ratio≥200)
2 | CCOC(=O)COC(=O)Nc1nn(-c2cc3c(cc2OC)NCCS3)c2cc(-c3cnn4cccnc34)ncc12 [Example 3, ethyl 2-(((1-(6-methoxy-3,4-dihydro-2H-benzo[b][1,4]thiazin-7-yl)-6-(pyrazolo[1,5-a]pyrimidin-3-yl)-1H-pyrazolo[4,3-c]pyridin-3-yl)carbamoyl)oxy)acetate] | ≤ 5.01 nM | ≤ 5.01 nM | ≤ 5.01 nM | 5.01 to 50.1 nM | ≤ 5.01 nM | kkkk (ratio≥200)
3 | COc1cc2c(cc1-n1nc(C(=O)NCCN3CCC(C(=O)OC4CCN(C)C4)CC3)c3cnc(-c4cnn5cccnc45)cc31)OCCN2 (centres unmarked) [Example 22, 1-methylpyrrolidin-3-yl 1-(2-(1-(6-methoxy-3,4-dihydro-2H-benzo[b][1,4]oxazin-7-yl)-6-(pyrazolo[1,5-a]pyrimidin-3-yl)-1H-pyrazolo[4,3-c]pyridine-3-carboxamido)ethyl)piperidine-4-carboxylate] | 5.01 to 50.1 nM | ≤ 5.01 nM | ≤ 5.01 nM | 5.01 to 50.1 nM | 5.01 to 50.1 nM | kkk (200>ratio≥100)
4 | COc1cc2c(cc1-n1nc(C(=O)NCCN3CCC(C(=O)OC4CN(C)C4)CC3)c3cnc(-c4cnn5cccnc45)cc31)OCCN2 [Example 21, 1-methylazetidin-3-yl 1-(2-(1-(6-methoxy-3,4-dihydro-2H-benzo[b][1,4]oxazin-7-yl)-6-(pyrazolo[1,5-a]pyrimidin-3-yl)-1H-pyrazolo[4,3-c]pyridine-3-carboxamido)ethyl)piperidine-4-carboxylate] | ≤ 5.01 nM | ≤ 5.01 nM | ≤ 5.01 nM | 5.01 to 50.1 nM | ≤ 5.01 nM | kkkk (ratio≥200)
5 | COC(=O)[C@H]1CCN(CCNC(=O)c2nn(-c3cc4c(cc3OC)NCCO4)c3cc(-c4cnn5cccnc45)ncc23)C1 [Example 30, methyl (S)-1-(2-(1-(6-methoxy-3,4-dihydro-2H-benzo[b][1,4]oxazin-7-yl)-6-(pyrazolo[1,5-a]pyrimidin-3-yl)-1H-pyrazolo[4,3-c]pyridine-3-carboxamido)ethyl)pyrrolidine-3-carboxylate] | ≤ 5.01 nM | ≤ 5.01 nM | ≤ 5.01 nM | 5.01 to 50.1 nM | 5.01 to 50.1 nM | kkkk (ratio≥200)
6 | COc1cc2c(cc1-n1nc(C(=O)NCCN3CCC(C(=O)OCC(F)(F)F)CC3)c3cnc(-c4cnn5cccnc45)cc31)OCCN2 [Example 13, 2,2,2-trifluoroethyl 1-(2-(1-(6-methoxy-3,4-dihydro-2H-benzo[b][1,4]oxazin-7-yl)-6-(pyrazolo[1,5-a]pyrimidin-3-yl)-1H-pyrazolo[4,3-c]pyridine-3-carboxamido)ethyl)piperidine-4-carboxylate] | ≤ 5.01 nM | ≤ 5.01 nM | ≤ 5.01 nM | 5.01 to 50.1 nM | ≤ 5.01 nM | kkkk (ratio≥200)
7 | COc1cc2c(cc1-n1nc(C(=O)NCCN3CCC(C(=O)OC4CC4)CC3)c3cnc(-c4cnn5cccnc45)cc31)OCCN2 [Example 11, cyclopropyl 1-(2-(1-(6-methoxy-3,4-dihydro-2H-benzo[b][1,4]oxazin-7-yl)-6-(pyrazolo[1,5-a]pyrimidin-3-yl)-1H-pyrazolo[4,3-c]pyridine-3-carboxamido)ethyl)piperidine-4-carboxylate] | ≤ 5.01 nM | ≤ 5.01 nM | ≤ 5.01 nM | 5.01 to 50.1 nM | ≤ 5.01 nM | kkkk (ratio≥200)
8 | COc1cc2c(cc1-n1nc(C(=O)NCCN3CCC(C(=O)O[C@H]4CN(C)C[C@@H]4F)CC3)c3cnc(-c4cnn5cccnc45)cc31)OCCN2 [Example 50, (3S,4S)-4-fluoro-1-methylpyrrolidin-3-yl 1-(2-(1-(6-methoxy-3,4-dihydro-2H-benzo[b][1,4]oxazin-7-yl)-6-(pyrazolo[1,5-a]pyrimidin-3-yl)-1H-pyrazolo[4,3-c]pyridine-3-carboxamido)ethyl)piperidine-4-carboxylate] | ≤ 5.01 nM | ≤ 5.01 nM | ≤ 5.01 nM | 5.01 to 50.1 nM | ≤ 5.01 nM | kkkk (ratio≥200)
9 | CCOC(=O)[C@H]1C[C@@H](OC(=O)Nc2nn(-c3cc4c(cc3OC)NCCS4)c3cc(-c4cnn5cccnc45)ncc23)C1 [Example 2, ethyl (1s,3s)-3-(((1-(6-methoxy-3,4-dihydro-2H-benzo[b][1,4]thiazin-7-yl)-6-(pyrazolo[1,5-a]pyrimidin-3-yl)-1H-pyrazolo[4,3-c]pyridin-3-yl)carbamoyl)oxy)cyclobutane-1-carboxylate] | ≤ 5.01 nM | ≤ 5.01 nM | ≤ 5.01 nM | 5.01 to 50.1 nM | 5.01 to 50.1 nM | 
